Results taken from PubChem BioAssay (NCI).
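Test compounds were applied to cells in 96-well plates for 48 hours at 5 doses. GI50 marks 50% less growth. The concentration for full growth arrest is given as TGI.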

Columns and labels:
Test in all cases: growth of human tumour cells (NCI), 48 h
786-0 renal = test system: 786-0 renal
A498 renal = test system: A498 renal
A549 NSCLC = test system: A549 NSCLC
ACHN renal = test system: ACHN renal
BT-549 breast = test system: BT-549 breast
CAKI-1 renal = test system: CAKI-1 renal
CCRF-CEM leukemia = test system: CCRF-CEM leukemia
COLO 205 colon = test system: COLO 205 colon
DU-145 prostate = test system: DU-145 prostate
EKVX NSCLC = test system: EKVX NSCLC
HCC-2998 colon = test system: HCC-2998 colon
HCT-116 colon = test system: HCT-116 colon
HCT-15 colon = test system: HCT-15 colon
HL-60(TB) leukemia = test system: HL-60(TB) leukemia
HOP-62 NSCLC = test system: HOP-62 NSCLC
HOP-92 NSCLC = test system: HOP-92 NSCLC
HS 578T breast = test system: HS 578T breast
HT29 colon = test system: HT29 colon
IGROV1 ovarian = test system: IGROV1 ovarian
K-562 leukemia = test system: K-562 leukemia
KM12 colon = test system: KM12 colon
LOX IMVI melanoma = test system: LOX IMVI melanoma
M14 melanoma = test system: M14 melanoma
MALME-3M melanoma = test system: MALME-3M melanoma
MCF7 breast = test system: MCF7 breast
MDA-MB-231 breast = test system: MDA-MB-231 breast
MDA-MB-435 = test system: MDA-MB-435
MOLT-4 leukemia = test system: MOLT-4 leukemia
NCI-H226 lung = test system: NCI-H226 lung
NCI-H23 lung = test system: NCI-H23 lung
NCI-H460 lung = test system: NCI-H460 lung
NCI-H522 lung = test system: NCI-H522 lung
NCI/ADR-RES ovarian = test system: NCI/ADR-RES ovarian
OVCAR-3 ovarian = test system: OVCAR-3 ovarian
OVCAR-4 ovarian = test system: OVCAR-4 ovarian
OVCAR-5 ovarian = test system: OVCAR-5 ovarian
OVCAR-8 ovarian = test system: OVCAR-8 ovarian
PC-3 prostate = test system: PC-3 prostate
RPMI-8226 leukemia = test system: RPMI-8226 leukemia
RXF 393 renal = test system: RXF 393 renal
SF-268 CNS = test system: SF-268 CNS
SF-295 CNS = test system: SF-295 CNS
SF-539 CNS = test system: SF-539 CNS
SK-MEL-2 melanoma = test system: SK-MEL-2 melanoma
SK-MEL-28 melanoma = test system: SK-MEL-28 melanoma
SK-MEL-5 melanoma = test system: SK-MEL-5 melanoma
SK-OV-3 ovarian = test system: SK-OV-3 ovarian
SN12C renal = test system: SN12C renal
SNB-19 CNS = test system: SNB-19 CNS
SNB-75 CNS = test system: SNB-75 CNS
SR leukemia = test system: SR leukemia
SW-620 colon = test system: SW-620 colon
T-47D breast = test system: T-47D breast
TK-10 renal = test system: TK-10 renal
U251 CNS = test system: U251 CNS
UACC-257 melanoma = test system: UACC-257 melanoma
UACC-62 melanoma = test system: UACC-62 melanoma
UO-31 renal = test system: UO-31 renal

`Cn1c2ccccc2c2nnc(NNCc3ccccn3)nc21` showed a GI50 (786-0 renal) of 327 nM, a TGI (786-0 renal) of 4510 nM and a GI50 (A498 renal) of 415 nM. For the same molecule, the TGI (A498 renal) was 12300 nM, the GI50 (A549 NSCLC) was 414 nM and the TGI (A549 NSCLC) was 16400 nM. For the same molecule, the GI50 (ACHN renal) was 305 nM, the TGI (ACHN renal) was 2370 nM and the GI50 (BT-549 breast) was 729 nM. It also gave a TGI (BT-549 breast) of 14900 nM, a GI50 (CAKI-1 renal) of 248 nM and a TGI (CAKI-1 renal) of 1630 nM. It also gave a GI50 (CCRF-CEM leukemia) of 357 nM, a TGI (CCRF-CEM leukemia) of 12700 nM and a GI50 (COLO 205 colon) of 476 nM. It also gave a TGI (COLO 205 colon) of 11400 nM, a GI50 (DU-145 prostate) of 312 nM and a TGI (DU-145 prostate) of 11000 nM. It also gave a GI50 (EKVX NSCLC) of 406 nM, a TGI (EKVX NSCLC) of 15200 nM and a GI50 (HCC-2998 colon) of 321 nM. It also gave a TGI (HCC-2998 colon) of 12700 nM, a GI50 (HCT-116 colon) of 409 nM and a TGI (HCT-116 colon) of 12200 nM. The GI50 (HCT-15 colon) was 328 nM, the TGI (HCT-15 colon) was 17900 nM and the GI50 (HL-60(TB) leukemia) was 318 nM. The TGI (HL-60(TB) leukemia) was 3130 nM, the GI50 (HOP-62 NSCLC) was 324 nM and the TGI (HOP-62 NSCLC) was 4640 nM. For the same molecule, the GI50 (HOP-92 NSCLC) was 279 nM, the TGI (HOP-92 NSCLC) was 5910 nM and the GI50 (HS 578T breast) was 1440 nM. It also gave a TGI (HS 578T breast) of 16700 nM, a GI50 (HT29 colon) of 526 nM and a TGI (HT29 colon) of 22900 nM. It also gave a GI50 (IGROV1 ovarian) of 364 nM, a TGI (IGROV1 ovarian) of 4790 nM and a GI50 (K-562 leukemia) of 363 nM. For the same molecule, the TGI (K-562 leukemia) was 13700 nM, the GI50 (KM12 colon) was 478 nM and the TGI (KM12 colon) was 14200 nM. The GI50 (LOX IMVI melanoma) was 349 nM, the TGI (LOX IMVI melanoma) was 4510 nM and the GI50 (M14 melanoma) was 246 nM. The TGI (M14 melanoma) was 738 nM, the GI50 (MALME-3M melanoma) was 400 nM and the TGI (MALME-3M melanoma) was 4370 nM. It also gave a GI50 (MCF7 breast) of 372 nM, a TGI (MCF7 breast) of 14500 nM and a GI50 (MDA-MB-231 breast) of 1030 nM. For the same molecule, the TGI (MDA-MB-231 breast) was 18000 nM, the GI50 (MDA-MB-435) was 555 nM and the TGI (MDA-MB-435) was 14500 nM. For the same molecule, the GI50 (MOLT-4 leukemia) was 380 nM, the TGI (MOLT-4 leukemia) was 12600 nM and the GI50 (NCI-H226 lung) was 324 nM. For the same molecule, the TGI (NCI-H226 lung) was 2630 nM, the GI50 (NCI-H23 lung) was 421 nM and the TGI (NCI-H23 lung) was 6150 nM. The GI50 (NCI-H460 lung) was 300 nM, the TGI (NCI-H460 lung) was 4030 nM and the GI50 (NCI-H522 lung) was 546 nM. It also gave a TGI (NCI-H522 lung) of 18100 nM, a GI50 (NCI/ADR-RES ovarian) of 276 nM and a TGI (NCI/ADR-RES ovarian) of 3220 nM. It also gave a GI50 (OVCAR-3 ovarian) of 325 nM, a TGI (OVCAR-3 ovarian) of 7120 nM and a GI50 (OVCAR-4 ovarian) of 451 nM. The TGI (OVCAR-4 ovarian) was 13900 nM, the GI50 (OVCAR-5 ovarian) was 1010 nM and the TGI (OVCAR-5 ovarian) was 15300 nM. It also gave a GI50 (OVCAR-8 ovarian) of 429 nM, a TGI (OVCAR-8 ovarian) of 20500 nM and a GI50 (PC-3 prostate) of 594 nM. It also gave a TGI (PC-3 prostate) of 16500 nM, a GI50 (RPMI-8226 leukemia) of 589 nM and a TGI (RPMI-8226 leukemia) of 18400 nM. For the same molecule, the GI50 (RXF 393 renal) was 407 nM, the TGI (RXF 393 renal) was 3360 nM and the GI50 (SF-268 CNS) was 294 nM. The TGI (SF-268 CNS) was 6500 nM, the GI50 (SF-295 CNS) was 397 nM and the TGI (SF-295 CNS) was 12400 nM. The GI50 (SF-539 CNS) was 393 nM, the TGI (SF-539 CNS) was 3380 nM and the GI50 (SK-MEL-2 melanoma) was 5170 nM. It also gave a TGI (SK-MEL-2 melanoma) of 33000 nM, a GI50 (SK-MEL-28 melanoma) of 675 nM and a TGI (SK-MEL-28 melanoma) of 11200 nM. The GI50 (SK-MEL-5 melanoma) was 271 nM, the TGI (SK-MEL-5 melanoma) was 1650 nM and the GI50 (SK-OV-3 ovarian) was 387 nM. The TGI (SK-OV-3 ovarian) was 7220 nM, the GI50 (SN12C renal) was 462 nM and the TGI (SN12C renal) was 14600 nM. For the same molecule, the GI50 (SNB-19 CNS) was 597 nM, the TGI (SNB-19 CNS) was 17400 nM and the GI50 (SNB-75 CNS) was 1160 nM. For the same molecule, the TGI (SNB-75 CNS) was 14100 nM, the GI50 (SR leukemia) was 311 nM and the TGI (SR leukemia) was 18700 nM. The GI50 (SW-620 colon) was 613 nM, the TGI (SW-620 colon) was 16500 nM and the GI50 (T-47D breast) was 369 nM. For the same molecule, the TGI (T-47D breast) was 8980 nM, the GI50 (TK-10 renal) was 614 nM and the TGI (TK-10 renal) was 14300 nM. For the same molecule, the GI50 (U251 CNS) was 446 nM, the TGI (U251 CNS) was 14400 nM and the GI50 (UACC-257 melanoma) was 641 nM. The TGI (UACC-257 melanoma) was 11100 nM, the GI50 (UACC-62 melanoma) was 268 nM and the TGI (UACC-62 melanoma) was 980 nM. The GI50 (UO-31 renal) was 258 nM and the TGI (UO-31 renal) was 1980 nM.
